This note sets out measurements from patent US9512107B2, “Therapeutically active compositions and their methods of use” (Agios Pharmaceuticals, Inc., priority 2012, dated 2016).

Experiment [1] concerns the target T1, IDH2 R172K (Homo sapiens, UniProt P48735, R172K).
T1 sequence (P48735 40-452 R172K): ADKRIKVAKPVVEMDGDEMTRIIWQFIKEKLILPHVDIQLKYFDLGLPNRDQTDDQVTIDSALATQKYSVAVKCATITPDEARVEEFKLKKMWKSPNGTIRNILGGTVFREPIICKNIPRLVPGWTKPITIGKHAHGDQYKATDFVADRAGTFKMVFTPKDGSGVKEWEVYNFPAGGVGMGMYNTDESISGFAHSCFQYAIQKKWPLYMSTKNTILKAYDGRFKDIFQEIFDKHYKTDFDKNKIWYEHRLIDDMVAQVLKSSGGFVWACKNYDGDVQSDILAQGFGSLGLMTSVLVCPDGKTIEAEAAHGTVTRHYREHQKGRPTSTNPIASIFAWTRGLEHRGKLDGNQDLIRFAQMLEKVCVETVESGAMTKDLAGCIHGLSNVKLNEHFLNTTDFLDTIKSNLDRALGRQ
Nature of the experiment: IDH2 R172K enzymatic assay (NADPH cofactor depletion, diaphorase/resazurin readout). The settings on record: read-out: Enz R172K. In kind it is biochemical. The gist of the method: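 Test compounds are incubated with the mutant enzyme for one hour at ambient temperature. A substrate mix of 50 μM NADPH plus 6.3 mM α-KG initiates turnover, which proceeds for one hour. Diaphorase and resazurin then halt the reaction by depleting the cofactor and convert the remaining NADPH into a fluorescent signal.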

Experiment [2] concerns the target T2, IDH2 R140Q (Homo sapiens, UniProt P48735, R140Q).
T2 sequence (P48735 40-452 R140Q): T1 sequence (P48735 40-452 R172K) with R101Q, K133R
Nature of the experiment: IDH2 R140Q enzymatic assay (cofactor depletion, similar format). In kind it is biochemical. The note with it: read-out: Enz R140Q.

The test system of experiment [3] is U87MG pLVX-IDH2 R140Q-neo cells. Nature of the experiment: U87MG pLVX-IDH2 R140Q-neo cell based assay, 2-HG in media by LC-MS at 48 hours. The gist of the method:
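U87MG cells stably expressing IDH2 R140Q were seeded overnight, then exposed to compound at 0.2% final DMSO at 37 °C, 5% CO2. 2-HG in the medium was quantified by LC-MS at 48 h. Growth inhibition was read by CellTiter-Glo luminescence at 72 h.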

Numbering of substitutions follows the chain as printed. Where two headings read alike, the source gives them in different places.

On to `CC(C)CCNc1nc(Nc2ccncc2)nc(-c2ccccc2)n1` [Compound 212, N^2-isopentyl-6-phenyl-N^4-(pyridin-4-yl)-1,3,5-triazine-2,4-diamine], for which the IC50 was 100 to 1000 nM in experiment [1]; < 100 nM in experiment [2]; < 100 nM in experiment [3] (Homo sapiens, U-87 MG).

As for `CC(C)Nc1nc(Nc2cccc(C#N)c2)nc(-c2ccccn2)n1` [Compound 246, 3-(4-(isopropylamino)-6-(pyridin-2-yl)-1,3,5-triazin-2-ylamino)benzonitrile], the IC50 was 100 to 1000 nM in experiment [1]; 100 to 1000 nM in experiment [2]; < 100 nM in experiment [3] (Homo sapiens, U-87 MG).

Take `CC(C)(C)Nc1nc(Nc2cc(Cl)cc(S(C)(=O)=O)c2)nc(-c2cccc(C(C)(F)F)n2)n1` [Compound 615, N2-(tert-butyl)-N4-(3-chloro-5-(methylsulfonyl)phenyl)-6-(6-(1,1-difluoroethyl)pyridin-2-yl)-1,3,5-triazine-2,4-diamine]: the IC50 in experiment [1] is 100 to 1000 nM; in experiment [2] it was 100 to 1000 nM; in experiment [3] (Homo sapiens, U-87 MG) it was < 100 nM.

With `CC(C)(O)CNc1nc(Nc2cc(F)cc(F)c2)nc(-c2cccc(N)n2)n1` [Compound 691, 1-(4-(6-aminopyridin-2-yl)-6-(3,5-difluorophenylamino)-1,3,5-triazin-2-ylamino)-2-methylpropan-2-ol], the IC50 was 100 to 1000 nM in experiment [1]; 100 to 1000 nM in experiment [2]; < 100 nM in experiment [3] (Homo sapiens, U-87 MG).

For the compound `CC(C)C(=O)Nc1nc(Nc2ccccc2)nc(-c2ccccc2)n1` [Compound 167], the IC50 is 100 to 1000 nM in experiment [1]; < 100 nM in experiment [2]; < 100 nM in experiment [3] (Homo sapiens, U-87 MG).

On to `CC(C)(C)Nc1nc(Nc2ccnc(C3(C#N)CC3)c2)nc(-c2cccc(C(C)(F)F)n2)n1` [Compound 606, 1-(4-((4-(tert-butylamino)-6-(6-(1,1-difluoroethyl)pyridin-2-yl)-1,3,5-triazin-2-yl)amino)pyridin-2-yl)cyclopropanecarbonitrile], for which the IC50 in experiment [1] was < 100 nM; in experiment [2], 100 to 1000 nM; in experiment [3] (Homo sapiens, U-87 MG), < 100 nM.

On to `FC1(F)CC(Nc2nc(Nc3ccncc3)nc(-c3ccccc3)n2)C1` [Compound 253, N^2-(3,3-difluorocyclobutyl)-6-phenyl-N^4-(pyridin-4-yl)-1,3,5-triazine-2,4-diamine], for which the IC50 is 100 to 1000 nM in experiment [1]; < 100 nM in experiment [2]; < 100 nM in experiment [3] (Homo sapiens, U-87 MG).

With `CC(C)(C)CNc1nc(Nc2ccncc2)nc(-c2ccccc2)n1` [Compound 191, N^2-neopentyl-6-phenyl-N^4-(pyridin-4-yl)-1,3,5-triazine-2,4-diamine], the IC50 in experiment [1] was 100 to 1000 nM; in experiment [2], < 100 nM; in experiment [3] (Homo sapiens, U-87 MG) it was < 100 nM.

Regarding `Cc1nc(-c2nc(Nc3cccc(F)c3)nc(NC(C)C)n2)co1` [Compound 471, N-(3-Fluoro-phenyl)-N′-isopropyl-6-(2-methyl-oxazol-4-yl)-[1,3,5]triazine-2,4-diamine], the IC50 was 100 to 1000 nM in experiment [1]; 100 to 1000 nM in experiment [2]; < 100 nM in experiment [3] (Homo sapiens, U-87 MG).

Consider `c1ccc(Nc2nc(NCC3CCO3)nc(-c3ccccc3)n2)cc1` (stereo not drawn) [Compound 237, N^2-(oxetan-2-ylmethyl)-N^4,6-diphenyl-1,3,5-triazine-2,4-diamine], for which the IC50 was in the range of 1000 to 10000 nM in experiment [1]; 100 to 1000 nM in experiment [2]; 100 to 1000 nM in experiment [3] (Homo sapiens, U-87 MG).

`CC(C)Nc1nc(Nc2ccnc(F)c2)nc(-c2nccc(C(F)(F)F)n2)n1` [Compound 538]: the figures for the IC50 in experiment [1], in experiment [2] and in experiment [3] were 100 to 1000 nM, 1000 to 10000 nM and < 100 nM, respectively.

For the compound `CC(C)Nc1nc(Nc2ccnc(C(F)F)c2)nc(-c2cccc(C(F)F)n2)n1` [Compound 673, 6-(6-Difluoromethyl-pyridin-2-yl)-N-(2-difluoromethyl-pyridin-4-yl)-N′-isopropyl-[1,3,5]triazine-2,4-diamine], the IC50 in experiment [1] is < 100 nM; in experiment [2] it was 100 to 1000 nM; in experiment [3] (Homo sapiens, U-87 MG), < 100 nM.
